Measurements taken from patent publication US20210401776A1, “METHOD OF TREATING […] SYNDROMES USING FENFLURAMINE ENANTIOMERS” (ZOGENIX INTERNATIONAL LIMITED, priority 2018, published 2021).

Experiments:
6-Hz seizures = test: acute mouse 6-Hz model (FIG. 9); assay type: in vivo, NMRI mice
Procedure: FIG. 9 includes two graphs that summarize the effects of racemic fenfluramine (abbreviated herein as “FA,” “FFA” or “FEN”) treatment in 6-Hz mice, as described in Example 2. FIG. 9A is a bar graph showing the percentage of animals protected for mice treated with vehicle, with […], and with 5 mg/kg FA. […] Protection being defined as the absence of a seizure within the expected time frame (i.e. below the minimum seizure duration in VHC treated mice).
Rapid screening of possible anticonvulsants can be performed by using acute (instead of chronic) animal models of drug-resistant seizures. […] In addition to the protocol using 44 mA pulses, more “lenient” versions of the model using 22 mA or 32 mA currents are sometimes employed.

[1] = test system: Generalized tonic-clonic seizures; test: acute maximal electroshock (MES) test; assay type: in vivo, male CF-1 mice
Procedure: (§1) The antiseizure effects of racemic fenfluramine were assessed in three mouse models of acute and chronic seizures in naïve male CF-1 mice (Envigo (Indianapolis, Ind., USA); 18-35 g): 1) the acute maximal electroshock (MES) test; 2) the acute 44 mA 6 Hz test; and 3) the chronic corneal kindled mouse (CKM) model.
(§2) Methods: Testing progressed in three phases: identification, time course, and dose response. In the identification phase, mice were administered FFA (3, 10, 30 mg/kg, ip), vehicle, or retigabine (positive control, 20 or 50 mg/kg, ip) 0.5 or 2 hr before testing (n=4/group). […] Dose-dependent anticonvulsant activity of FFA was assessed by testing between 0.25 and 120 mg/kg (n=8/dose). The effect of FFA on mild motor impairment (MMI) in the fixed-speed rotarod (FSR) was assessed prior to the MES, 44 mA 6 Hz, and CKM tests.

[2] = test system: secondarily generalized focal seizures; test: acute 44 mA 6 Hz test; assay type: in vivo, male CF-1 mice
Procedure: as §1, §2

corneal kindled mouse = test: chronic corneal kindled mouse (CKM) model; assay type: in vivo, male CF-1 mice
Procedure: as §1, §2

[3] = fixed-speed rotarod, minimal motor impairment (MMI); assay type: in vivo, male CF-1 mice
Procedure: as §2

dizocilpine-treated mice [4] = test: spontaneous alternation in the Y-maze, dizocilpine-induced amnesia model; assay type: in vivo, Male Swiss OF-1 mice
dizocilpine-treated mice [5] = test: step-through passive avoidance, dizocilpine-induced amnesia model; assay type: in vivo, Male Swiss OF-1 mice
dizocilpine-treated mice [6] = test: dizocilpine-induced learning deficits, statements covering both tests (Y-maze and passive avoidance); assay type: in vivo, Male Swiss OF-1 mice; settings: mouse, in vivo
Procedure: Experiments were conducted to determine the dose-response effects of fenfluramine (FEN) and norfenfluramine (NOR), racemate and (+)- and (−)-isomers, in an in vivo mouse model; the dizocilpine-induced amnesia model (described below) is used to test responses to drugs acting at the sigma-1 receptor (S1R) (Maurice et al., 1994a,b; Maurice, et al., 1998, Neuroscience 83:413-428).
The drugs were administered intraperitoneally (“ip” or “IP”) with dizocilpine (0.15 mg/kg) and tested in the spontaneous alternation test on day 1 and in the passive avoidance test on days 2-3.
The apparatus consisted of a 2-compartment box, with one illuminated with white polyvinylchloride (PVC) walls and a transparent cover (15×20×15 cm high), one with black polyvinylchloride walls and cover (15×20×15 cm high), and a grid floor. A guillotine door separated each compartment. A 60 W lamp was positioned 40 cm above the apparatus lit the white compartment during the experimental period. Scrambled foot shocks (0.3 mA for 3 s) were delivered to the grid floor using a shock generator scrambler (Lafayette Instruments, Lafayette, Mass., USA). The guillotine door was initially closed during the training session. Each mouse was placed into the white compartment. After 5 s, the door was raised. When the mouse entered the darkened compartment and placed all its paws on the grid floor, the door was gently closed and the 3-scrambled foot shock was delivered for 3 s. The step-through latency, i.e., the latency spent to enter the dark compartment, and the level of sensitivity to the shock were recorded. The latter was evaluated as: 0=no sign; 1=flinching reactions; 2=flinching and vocalization reactions. The retention test was carried out 24 h after training. Each mouse was placed again into the white compartment. After 5 s, the door was raised. The step-through latency was recorded up to 300 s. Animals entered the darkened compartment or were gently pushed into it and the escape latency, i.e., the time spent to return into the white compartment, was also measured up to 300 s. Results were expressed as median and interquartile (25%-75%) range.
The Y-maze is made of grey PVC. Each arm is 40 cm long, 13 cm high, 3 cm wide at the bottom, 10 cm wide at the top, and converged at an equal angle. Each mouse was placed at the end of one arm and allowed to move freely through the maze during an 8-min session. The series of arm entries, including possible returns into the same arm, were checked visually. An alternation was defined as entries into all three arms on consecutive occasions. The number of maximum alternations was therefore the total number of arm entries minus two and the percentage of alternation was calculated as: actual alternations/maximum alternations)×100. Parameters included the percentage of alternation (memory index) and total number of arm entries (exploration index).

With CCNC(C)Cc1cccc(C(F)(F)F)c1 (racemic) [Fenfluramine, (RS)—N-ethyl-1-[3-(trifluoromethyl)phenyl]propan-2-amine] the “number of mice having seizures and duration of seizures” value (6-Hz seizures; 20 and 5 mg/kg (FIG. 9)) was “dose-dependent decrease”, the “seizures in the mouse 6-Hz model” value (6-Hz seizures; Mann-Whitney p<0.05 vs. VHC) was “significantly reduced seizures” and the “period of post-seizure aggression” value (6-Hz seizures; vehicle mice displayed it) was “did not”. The protection ([1]; 0.5 hours, 3 mg/kg ip) was 0%, the protection ([1]; 0.5 hours, 10 mg/kg ip) was 0% and the protection ([1]; 0.5 hours, 30 mg/kg ip) was 100%. It also gave a protection ([1]; 2.0 hours, 3 mg/kg ip) of 75%, a protection ([1]; 2.0 hours, 10 mg/kg ip) of 50% and a protection ([1]; 2.0 hours, 30 mg/kg ip) of 100%. For the same compound, the “protection, time course at last time point” value ([1]; 4 hours post dosing) was 100% protection at 4 hours post dosing, the ED50 ([1]; Mus musculus, MES, Probit regression, 95% CI 1.4 to 5.1 mg/kg) was 2.9 mg/kg and the “anticonvulsant effect in the MES model” value ([1]; acute administration) was “substantial anticonvulsant effect”. For the same compound, the protection ([2]; 4 hours) was “no protection”, the ED50 ([2]; Mus musculus, 6 Hz 44 mA, 95% CI 31.9 to 66.7 mg/kg) was 47 mg/kg and the “activity in a model of focal seizures that secondarily generalize” value ([2]; mouse, in vivo) was “some activity”. For the same compound, the mice died (corneal kindled mouse; 90 mg/kg) was 2 of 8, the mice died (corneal kindled mouse; 120 mg/kg) was 6 of 8 and the anticonvulsant activity (corneal kindled mouse; all doses tested) was “Minimal anticonvulsant activity at all doses tested”. For the same compound, the Impairment ([3]; 6 Hz 44 mA section, 30 mg/kg at 0.25, 0.50, 1.00 and 2.00 hours) was “Some impairment found at a dose of 30 mg/kg at timepoints of 0.25, 0.50, 1.00, and”, the Impairment ([3]; 6 Hz 44 mA section, 4 hours) was “no impairment” and the Impairment ([3]; at doses used in the MES model) was “No impairment on rotarod at doses used in this model”. For the same compound, the TD50 ([3]; male, CF-1, mouse, in vivo, intraperitoneal, reported under 6 Hz 44 mA, 95% CI 25.3 to 53.0) was 34.6 mg/kg, the “PP (%)” value (dizocilpine-treated mice [4]; Table 2 Y-Maze, drug alone 0.1 mg/kg IP) was 1.3 ± 7.9% and the “PP (%)” value (dizocilpine-treated mice [4]; Table 2 Y-Maze, drug alone 0.3 mg/kg IP) was 37.9 ± 9.4%. The “PP (%)” value (dizocilpine-treated mice [4]; Table 2 Y-Maze, drug alone 1 mg/kg IP) was 59.8 ± 6.1 ^2%, the “PP (%)” value (dizocilpine-treated mice [4]; Table 5 YMT, drug alone 0.1 mg/kg ip) was 4.4 ± 7.7% and the “PP (%)” value (dizocilpine-treated mice [4]; Table 5 YMT, drug alone 0.3 mg/kg ip) was 33.6 ± 5.7^2%. The “PP (%)” value (dizocilpine-treated mice [4]; Table 6 YMT, drug alone 0.1 mg/kg ip) was -9.81 ± 7.6^ %, the “PP (%)” value (dizocilpine-treated mice [4]; Table 6 YMT, drug alone 0.3 mg/kg ip) was 26.6 ± 9.8 ^2% and the “PP (%)” value (dizocilpine-treated mice [5]; Table 2 StepThrough/Passive Avoidance, drug alone 0.1 mg/kg IP) was 11.0 ± 11.6%. For the same compound, the “PP (%)” value (dizocilpine-treated mice [5]; Table 2 StepThrough/Passive Avoidance, drug alone 0.3 mg/kg IP) was 55.7 ± 10.5%, the “PP (%)” value (dizocilpine-treated mice [5]; Table 2 StepThrough/Passive Avoidance, drug alone 1 mg/kg IP) was 40.8 ± 13.0 ^4% and the “PP (%)” value (dizocilpine-treated mice [5]; Table 5 STPA, drug alone 0.1 mg/kg ip) was 11.2 + 12.0%. The “PP (%)” value (dizocilpine-treated mice [5]; Table 5 STPA, drug alone 0.3 mg/kg ip) was 65.5 ± 12.1^5%, the “PP (%)” value (dizocilpine-treated mice [5]; Table 6 STPA, drug alone 0.1 mg/kg ip) was 16.8 ± 14.2% and the “PP (%)” value (dizocilpine-treated mice [5]; Table 6 STPA, drug alone 0.3 mg/kg ip) was 60.1 ± 13.9 ^5%. For the same compound, the “behavior in vivo at S1R” value (dizocilpine-treated mice [6]) was “behaved in vivo as S1R positive modulators”.
